Measurements as given in patent US9302999B2, “Substituted triazoles as herbicides” (E. I. DU PONT DE NEMOURS AND COMPANY, priority 2012, dated 2016).

Assays:
Type in all cases: in vivo
[1] = tested on: corn (Zea mays); experiment: Test C pre-/postemergence: corn
In short: (§1)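 Preemergence on seeds in loam/sand, postemergence on 2–18 cm (1–4-leaf) plants in peat-based medium; compounds in non-phytotoxic solvent with surfactant. After 13–15 days in greenhouse, visual rating versus controls, 0 (no effect) to 100 (complete control).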

[2] = tested on: corn (Zea mays); experiment: Test A pre-/postemergence: corn
In short: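 Pre: directed soil spray after planting in loam + sand. Post: same formulation (non-phytotoxic solvent + surfactant) on 1–2-leaf plants, 2–10 cm. Greenhouse ~10 d; visual injury 0–100 vs untreated.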

[3] = tested on: velvetleaf (Abutilon theophrasti); experiment: Test C pre-/postemergence: velvetleaf
In short: as §1

[4] = tested on: kochia (Kochia scoparia); experiment: Test C pre-/postemergence: kochia; details: Postemergence
In short: as §1

[5] = tested on: foxtail, giant (giant foxtail, Setaria faberii); experiment: Test C pre-/postemergence: foxtail, giant
In short: as §1

[6] = tested on: ragweed (common ragweed, Ambrosia elation); experiment: Test C pre-/postemergence: ragweed
In short: as §1

[7] = tested on: large crabgrass (Digitaria sanguinalis); experiment: Test C pre-/postemergence: large crabgrass
In short: as §1

[8] = tested on: ducksalad (Heteranthera limosa); experiment: Test B flooded paddy: ducksalad; details: Flood; 250 g ai/ha; applied to paddy water at 2-leaf stage; visually evaluated after 13 to 15 days
In short: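 Plants were grown to the 2-leaf stage, then pots were flooded to 3 cm above the soil and compounds were applied directly into the paddy water. Water depth was held for the whole test; after 13 to 15 days in a greenhouse, injury was visually rated against untreated controls (0 = no effect, 100 = complete control).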

[9] = tested on: nutsedge, yellow (yellow nutsedge, Cyperus esculentus); experiment: Test C pre-/postemergence: nutsedge, yellow
In short: as §1

[10] = tested on: chickweed (common chickweed, Stellaria media); experiment: Test C postemergence: chickweed
In short: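 Greenhouse pot test; foliar postemergence treatment at 1- to 4-leaf stage. Rated visually at 13 to 15 days on a 0–100 control scale relative to untreated plants.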

[11] = tested on: wild oat (Avena fatua); experiment: Test C pre-/postemergence: wild oat; details: Postemergence
In short: as §1

[12] = Postemergence, 31 g ai/ha, scale 0 to 100 (0 no effect, 100 complete control)
[13] = Postemergence, 62 g ai/ha, scale 0 to 100 (0 no effect, 100 complete control)
[14] = Postemergence, 250 g ai/ha, scale 0 to 100
[15] = Preemergence, 31 g ai/ha, scale of 0 to 100, 0 is no effect, 100 is complete control
[16] = Preemergence, 62 g ai/ha, scale of 0 to 100, 0 is no effect, 100 is complete control
[17] = Preemergence, 125 g ai/ha, scale 0 to 100, 0 no effect, 100 complete control
[18] = Preemergence, 250 g ai/ha, scale 0 to 100, 0 no effect, 100 complete control
[19] = Postemergence, 125 g ai/ha, scale 0 to 100, 0 no effect, 100 complete control
[20] = 31 g ai/ha, scale 0 to 100 (0 no effect, 100 complete control)
[21] = 62 g ai/ha, scale 0 to 100 (0 no effect, 100 complete control)
[22] = 125 g ai/ha, scale 0 to 100, 0 no effect, 100 complete control

## CCc1nn(-c2ccc(F)cc2)nc1Cc1ccnc(C(F)(F)F)c1 [Compound 154]
[1]; [12]
  Plant response rating, Corn: 20
[1]; [13]
  Plant response rating, Corn: 20
[1]; [14]
  Plant response rating, Corn: 20
[1]; [15]
  Plant response rating, Corn: 0
[1]; [16]
  Plant response rating, Corn: 5
[1]; [17]
  Plant response rating, Corn: 10
[1]; [18]
  Plant response rating, Corn: 15
[2]; Postemergence, 125 g ai/ha, 0 to 100 scale, 0 is no effect, 100 is complete control
  Plant response rating, Corn: 30
[2]; Postemergence, 500 g ai/ha, visual rating on 0 to 100 scale (0 no effect, 100 complete control), approximately ten days
  Corn plant response rating: 80
[2]; Preemergence, 125 g ai/ha, 0 to 100 scale where 0 is no effect and 100 is complete control
  Plant response rating, Corn: 20
[2]; Preemergence, 500 g ai/ha, 0 to 100 scale (0 no effect, 100 complete control)
  Plant response rating, Corn: 70
[3]; [12]
  Plant response rating, Velvetleaf: 35
[3]; [13]
  Plant response rating, Velvetleaf: 45
[3]; [19]
  Plant response rating, Velvetleaf: 55
[3]; [14]
  Plant response rating, Velvetleaf: 65
[3]; [15]
  Plant response rating, Velvetleaf: 5
[3]; [16]
  Plant response rating, Velvetleaf: 45
[3]; [17]
  Plant response rating, Velvetleaf: 90
[3]; [18]
  Plant response rating, Velvetleaf: 100
[4]; [20]
  Plant response rating, Kochia: 90
[4]; [21]
  Plant response rating, Kochia: 90
[4]; [22]
  Plant response rating, Kochia: 90
[4]; 250 g ai/ha, scale 0 to 100
  Plant response rating, Kochia: 95
[5]; [12]
  Plant response rating, Foxtail, Giant: 20
[5]; [13]
  Plant response rating, Foxtail, Giant: 20
[5]; [19]
  Plant response rating, Foxtail, Giant: 55
[5]; [14]
  Plant response rating, Foxtail, Giant: 75
[5]; [15]
  Plant response rating, Foxtail, Giant: 100
[5]; [16]
  Plant response rating, Foxtail, Giant: 100
[5]; [17]
  Plant response rating, Foxtail, Giant: 100
[5]; [18]
  Plant response rating, Foxtail, Giant: 100
[6]; [12]
  Plant response rating, Ragweed: 30
[6]; [13]
  Plant response rating, Ragweed: 30
[6]; [19]
  Plant response rating, Ragweed: 30
[6]; [14]
  Plant response rating, Ragweed: 40
[6]; [15]
  Plant response rating, Ragweed: 0
[6]; [16]
  Plant response rating, Ragweed: 0
[6]; [17]
  Plant response rating, Ragweed: 50
[6]; [18]
  Plant response rating, Ragweed: 70
[7]; [12]
  Plant response rating, Crabgrass, Large: 20
[7]; [13]
  Plant response rating, Crabgrass, Large: 30
[7]; [19]
  Plant response rating, Crabgrass, Large: 45
[7]; [14]
  Plant response rating, Crabgrass, Large: 70
[7]; [15]
  Plant response rating, Crabgrass, Large: 90
[7]; [16]
  Plant response rating, Crabgrass, Large: 100
[7]; [17]
  Plant response rating, Crabgrass, Large: 100
[7]; [18]
  Plant response rating, Crabgrass, Large: 100
[8]
  Plant response rating, Ducksalad (0 to 100 scale, 0 is no effect, 100 is complete control): 80
[9]; [12]
  Plant response rating, Nutsedge, Yellow: 10
[9]; [13]
  Plant response rating, Nutsedge, Yellow: 10
[9]; [19]
  Plant response rating, Nutsedge, Yellow: 15
[9]; [14]
  Plant response rating, Nutsedge, Yellow: 15
[9]; [15]
  Plant response rating, Nutsedge, Yellow: 0
[10]; [20]
  Plant response rating, Chickweed: 85
[10]; [21]
  Plant response rating, Chickweed: 85
[10]; [22]
  Plant response rating, Chickweed: 95
[10]; 250 g ai/ha, scale 0 to 100
  Plant response rating, Chickweed: 95
[11]; [20]
  Plant response rating, Oat, Wild: 15
[11]; [21]
  Plant response rating, Oat, Wild: 35
[11]; [22]
  Plant response rating, Oat, Wild: 65
[11]; 250 g ai/ha, scale 0 to 100
  Plant response rating, Oat, Wild: 65
